These results are taken from ChEMBL document CHEMBL3763148, “Synthesis, structure elucidation, DNA-PK and PI3K and anti-cancer activity of 8- and 6-aryl-substituted-1-3-benzoxazines” (Eur J Med Chem, 2016).

Assay [1] has as its target T1, Phosphatidylinositol 4,5-bisphosphate 3-kinase catalytic subunit alpha isoform (Homo sapiens, UniProt P42336). Briefly: Inhibition of PI3Kalpha (unknown origin) incubated for 60 mins by kinase-glo luminescence assay.
For assay [2], the target named is T2, Phosphatidylinositol 4,5-bisphosphate 3-kinase catalytic subunit beta isoform (Homo sapiens, UniProt P42338). The assay is described as follows: Inhibition of PI3Kbeta (unknown origin) at 10 uM incubated for 60 mins by kinase-glo luminescence assay.
Target sequence in this assay (P42338 whole entry, looked up, canonical isoform): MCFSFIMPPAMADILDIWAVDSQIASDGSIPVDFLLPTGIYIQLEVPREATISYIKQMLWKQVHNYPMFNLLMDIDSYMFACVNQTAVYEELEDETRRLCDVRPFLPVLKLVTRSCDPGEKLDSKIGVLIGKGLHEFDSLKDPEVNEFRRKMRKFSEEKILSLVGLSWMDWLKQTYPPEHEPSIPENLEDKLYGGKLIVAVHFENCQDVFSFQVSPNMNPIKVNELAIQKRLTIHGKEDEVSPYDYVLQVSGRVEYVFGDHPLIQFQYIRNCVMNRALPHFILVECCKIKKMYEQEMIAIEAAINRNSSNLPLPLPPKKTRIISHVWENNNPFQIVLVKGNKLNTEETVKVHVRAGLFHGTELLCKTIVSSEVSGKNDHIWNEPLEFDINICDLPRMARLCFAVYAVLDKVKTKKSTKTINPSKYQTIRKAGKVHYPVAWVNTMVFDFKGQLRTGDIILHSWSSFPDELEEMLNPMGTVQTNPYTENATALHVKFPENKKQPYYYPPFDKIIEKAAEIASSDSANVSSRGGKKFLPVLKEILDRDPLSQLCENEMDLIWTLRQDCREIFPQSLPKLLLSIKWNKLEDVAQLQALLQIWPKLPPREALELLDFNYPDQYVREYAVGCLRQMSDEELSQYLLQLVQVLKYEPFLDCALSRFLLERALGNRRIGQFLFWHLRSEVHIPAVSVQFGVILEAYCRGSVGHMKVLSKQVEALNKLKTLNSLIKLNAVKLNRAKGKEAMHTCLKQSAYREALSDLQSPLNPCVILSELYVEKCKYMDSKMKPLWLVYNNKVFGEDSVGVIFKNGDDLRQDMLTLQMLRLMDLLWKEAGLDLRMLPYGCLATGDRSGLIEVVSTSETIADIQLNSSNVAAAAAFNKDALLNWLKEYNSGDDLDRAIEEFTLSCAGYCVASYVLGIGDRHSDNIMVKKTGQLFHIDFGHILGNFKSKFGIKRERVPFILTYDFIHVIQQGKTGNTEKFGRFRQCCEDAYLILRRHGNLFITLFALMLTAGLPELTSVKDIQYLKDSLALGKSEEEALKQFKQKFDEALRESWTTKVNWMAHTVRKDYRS
The next assay deals with M14. The assay is described as follows: Cytotoxicity against human M14 cells assessed as cell growth inhibition at 10 uM after 48 hrs by SRB assay relative to control. The settings on record: M14, 48 h, read-out: GI. It is filed as functional.
For assay [3], the target named is T1, Phosphatidylinositol 4,5-bisphosphate 3-kinase catalytic subunit alpha isoform. Briefly: Inhibition of PI3Kalpha (unknown origin) at 10 uM incubated for 60 mins by kinase-glo luminescence assay. Background: Kinase-Glo reads ATP consumption through a luciferase reaction.
Assay [4] has as its target T2, Phosphatidylinositol 4,5-bisphosphate 3-kinase catalytic subunit beta isoform. The assay is described as follows: Inhibition of PI3Kbeta (unknown origin) incubated for 60 mins by kinase-glo luminescence assay.
Target sequence in this assay (P42338 whole entry, canonical isoform): as the sequence (P42338 whole entry, looked up, canonical isoform) above
The species named for another assay is Homo sapiens. The assay is described as follows: Selectivity ratio of IC50 for PI3Kbeta (unknown origin) to IC50 for human DNA-PK.
For assay [5], the target named is T3, Phosphatidylinositol 4,5-bisphosphate 3-kinase catalytic subunit delta isoform (Homo sapiens) (UniProt O00329).
T3 sequence (whole entry): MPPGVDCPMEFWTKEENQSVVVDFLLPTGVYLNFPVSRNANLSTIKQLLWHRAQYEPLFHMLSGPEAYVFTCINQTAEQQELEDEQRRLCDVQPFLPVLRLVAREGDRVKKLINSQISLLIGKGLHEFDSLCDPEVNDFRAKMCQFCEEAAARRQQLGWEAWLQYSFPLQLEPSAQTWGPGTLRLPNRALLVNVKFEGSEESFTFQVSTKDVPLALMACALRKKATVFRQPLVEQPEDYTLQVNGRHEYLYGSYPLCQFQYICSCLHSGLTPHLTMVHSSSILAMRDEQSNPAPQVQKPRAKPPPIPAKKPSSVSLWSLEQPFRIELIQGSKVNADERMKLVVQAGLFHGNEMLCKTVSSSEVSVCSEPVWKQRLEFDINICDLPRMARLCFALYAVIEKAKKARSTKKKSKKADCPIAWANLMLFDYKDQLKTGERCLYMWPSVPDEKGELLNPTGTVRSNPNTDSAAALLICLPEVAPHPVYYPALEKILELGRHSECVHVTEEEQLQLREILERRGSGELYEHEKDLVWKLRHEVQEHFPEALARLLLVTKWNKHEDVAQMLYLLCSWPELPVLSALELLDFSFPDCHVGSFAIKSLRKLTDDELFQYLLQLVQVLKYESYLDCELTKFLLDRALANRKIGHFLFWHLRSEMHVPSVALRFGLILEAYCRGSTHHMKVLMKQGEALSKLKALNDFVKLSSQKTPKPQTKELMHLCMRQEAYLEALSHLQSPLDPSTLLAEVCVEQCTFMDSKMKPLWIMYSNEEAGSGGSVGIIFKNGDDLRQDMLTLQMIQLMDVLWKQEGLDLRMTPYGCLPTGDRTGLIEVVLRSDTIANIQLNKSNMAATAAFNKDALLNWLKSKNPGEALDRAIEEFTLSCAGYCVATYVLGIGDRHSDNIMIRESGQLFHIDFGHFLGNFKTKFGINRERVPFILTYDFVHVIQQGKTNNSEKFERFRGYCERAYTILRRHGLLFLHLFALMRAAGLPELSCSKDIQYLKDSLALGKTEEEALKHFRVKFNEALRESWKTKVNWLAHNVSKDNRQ
The assay is described as follows: Inhibition of PI3Kdelta (unknown origin) at 10 uM incubated for 60 mins by kinase-glo luminescence assay.

Assay [6] concerns the target DNA-dependent protein kinase catalytic subunit (Homo sapiens, UniProt P78527). The assay is described as follows: Inhibition of human DNA-PK using EPPLSQEAFADLWKK as substrate at 10 uM by HTRF assay.

T1 sequence (P42336 whole entry, canonical isoform): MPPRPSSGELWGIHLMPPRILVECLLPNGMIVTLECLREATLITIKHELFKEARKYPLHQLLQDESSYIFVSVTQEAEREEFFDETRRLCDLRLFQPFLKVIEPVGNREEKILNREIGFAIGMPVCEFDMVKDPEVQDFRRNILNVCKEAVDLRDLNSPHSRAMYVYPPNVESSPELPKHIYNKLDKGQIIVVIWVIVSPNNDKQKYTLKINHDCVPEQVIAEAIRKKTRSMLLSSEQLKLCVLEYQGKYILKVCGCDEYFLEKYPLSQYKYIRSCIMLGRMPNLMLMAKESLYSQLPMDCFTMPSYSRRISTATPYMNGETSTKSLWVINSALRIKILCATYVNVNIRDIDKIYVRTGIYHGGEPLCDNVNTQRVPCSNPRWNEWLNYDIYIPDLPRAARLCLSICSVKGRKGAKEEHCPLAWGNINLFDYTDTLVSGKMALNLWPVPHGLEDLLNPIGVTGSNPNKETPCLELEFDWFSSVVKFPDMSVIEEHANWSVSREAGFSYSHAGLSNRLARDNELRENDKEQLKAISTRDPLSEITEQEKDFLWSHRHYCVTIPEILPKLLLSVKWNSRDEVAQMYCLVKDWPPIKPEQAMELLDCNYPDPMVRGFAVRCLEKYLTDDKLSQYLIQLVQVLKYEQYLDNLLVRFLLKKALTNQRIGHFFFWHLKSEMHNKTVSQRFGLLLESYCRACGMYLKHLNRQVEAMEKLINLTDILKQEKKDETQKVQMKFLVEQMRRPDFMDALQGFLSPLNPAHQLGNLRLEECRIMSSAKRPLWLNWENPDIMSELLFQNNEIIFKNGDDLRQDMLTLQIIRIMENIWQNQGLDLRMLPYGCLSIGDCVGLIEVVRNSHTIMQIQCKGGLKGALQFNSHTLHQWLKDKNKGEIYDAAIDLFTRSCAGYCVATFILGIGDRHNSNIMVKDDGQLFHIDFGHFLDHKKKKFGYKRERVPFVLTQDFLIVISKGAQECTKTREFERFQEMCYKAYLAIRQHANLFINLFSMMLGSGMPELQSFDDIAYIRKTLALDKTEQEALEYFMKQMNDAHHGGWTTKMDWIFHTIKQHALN

Compound `O=c1nc(N2CCOCC2)oc2c(-c3cccs3)cccc12` registered an IC50 in assay [1] of 3.3 µM. In assay [2], this compound yielded an inhibition of 43%. The inhibition of growth at 10 µM in the assay with M14 was determined as 0.86%.

As for `O=c1nc(N2CCOCC2)oc2c(-c3cccc4c3sc3ccccc34)cccc12`, in assay [3], the inhibition is 25%. Further, in assay [4], the IC50 stood at 5.8 µM. For the same compound, in the assay on M14, the inhibition of growth at 10 µM amounted to 3.09%. For the same compound, the Ratio IC50 in the assay listed under Homo sapiens amounted to 170.

`O=c1nc(N2CCOCC2)oc2c(-c3ccsc3)cccc12`: the 50% inhibitory concentration (IC50) worked out at 3 µM in assay [1] and 3.4 µM in assay [4]. For the same compound, the inhibition of growth at 10 µM in the assay with M14 is 3.28%.

`O=c1nc(N2CCOCC2)oc2c(-c3cccc4c3oc3ccccc34)cccc12` registered an inhibition in assay [3] of 26%. Further, the IC50 in assay [4] was 6.9 µM. Also, the inhibition of growth at 10 µM in the assay with M14 is -2.42%.

Take `O=c1nc(N2CCOCC2)oc2ccc(-c3cccc4c3sc3ccccc34)cc12`: the inhibition came to 0% in assay [3], 21% in assay [2], 0% in assay [5] and 8% in assay [6]. Besides, in the assay on M14, the inhibition of growth at 10 µM was 2.99%.

In assay [1], `COc1ccc(-c2cccc3c(=O)nc(N4CCOCC4)oc23)cc1` had an IC50 of 2.8 µM. Further, the inhibition in assay [2] is 22%. For the same compound, the inhibition of growth at 10 µM with M14 was -0.43%.

Turning to `NC(=O)c1ccc(-c2cccc3c(=O)nc(N4CCOCC4)oc23)cc1`, the half-maximal inhibitory concentration (IC50) in assay [1] is more than 10 µM. The compound also displayed an inhibition in assay [2] of 13%. In the assay on M14, the inhibition of growth at 10 µM came out at 2.25%.

`O=c1nc(N2CCOCC2)oc2c(-c3cccc4ccccc34)cccc12` registered an inhibition in assay [3] of 34%. Besides, in assay [4], the IC50 turned out to be 5 µM. Further, the inhibition of growth at 10 µM in the assay with M14 is 6.76%. In addition, the Ratio IC50 in the assay listed under Homo sapiens was determined as 8.

By IC50 is commonly meant the point on the concentration scale where inhibition reaches its midpoint. Low readings indicate inhibition by little substance, high ones a need for much substance. For orientation: inhibition means the percentage by which the read-out fell short of the control.
